Reference: PMC5075052, “Modulation of the Substitution Pattern of 5-Aryl-2-Aminoimidazoles Allows Fine-Tuning of Their Antibiofilm Activity Spectrum and Toxicity” (Antimicrobial Agents and Chemotherapy, 2016)
Where two headings read alike, the source gives them in different places.

Key:
P. gingivalis ATCC 33277 = assay: Monospecies bacterial biofilm inhibition, static peg assay (anaerobic, 72 h); format: cell-based; conditions: Porphyromonas gingivalis, ATCC33277, P. gingivalis ATCC 33277, 37°C
Protocol: (§1) A static peg assay, described previously ([27], [74]), was used for bacterial biofilm formation. The Calgary biofilm device consists of a platform carrying 96 polystyrene pegs (Nunc no. 445497) that fits as a microtiter plate lid, with 1 peg hanging into each microtiter plate well (Nunc no. 269789). Twofold serial dilutions of the compounds (dissolved in 100% dimethyl sulfoxide [DMSO] or ethanol) in 100 μl liquid broth (TSB diluted 1/20) per well were prepared in the microtiter plate in duplicate or triplicate with a maximum concentration of 1,600 μM and a minimum concentration of 0.8 μM. Subsequently, an overnight culture of S. Typhimurium ATCC 14028, P. aeruginosa PA14, E. coli TG1, S. epidermidis, S. aureus SH1000, or S. aureus ATCC 6538 (all grown in LB) was diluted 1:100 into TSB diluted 1/20 (or TSB for S. epidermidis, S. aureus SH1000, and S. aureus ATCC 6538), whereas overnight cultures of S. liquefaciens MG44 and B. cepacia LMG1222T were diluted 1:50 into TSB diluted 1/20. P. gingivalis ATCC 33277 cultures were diluted in TSB diluted 1/20 to have a final concentration of 1 × 10^8 cells/ml. Next, 100 μl was added to each well of the microtiter plate, resulting in a total volume of 200 μl medium per well (final concentration range of compounds, 800 μM [2% DMSO or ethanol] to 0.4 μM [0.001% DMSO or ethanol]). In the next step, the pegged lid was placed on the microtiter plate and the plate was incubated for 24 h or 48 h at 25°C or 37°C without shaking. At 37°C, the plates were placed in a sealed container with wet towels on the bottom to prevent evaporation of the growth medium. Biofilms of P. gingivalis ATCC 33277 were grown anaerobically at 37°C for 72 h. During this incubation period, biofilms were formed on the surface of the pegs. After incubation, the optical density at 600 nm (OD600) for the planktonic cells in the microtiter plate was measured using a Synergy MX multimode reader (BioTek, Winooski, VT). This gives a first indication of the effect of the compounds on planktonic growth. For quantification of biofilm formation, the pegs were washed once in 200 μl PBS. The remaining attached bacteria were stained for 30 min with 200 μl 0.1% (wt/vol) crystal violet in an isopropanol-methanol-PBS solution (1:1:18, vol/vol). Excess stain was rinsed off by placing the pegs in a 96-well plate filled with 200 μl distilled water per well. After air drying of the pegs (30 min), the dye bound to the adherent biofilm was extracted with 30% glacial acetic acid (200 μl per well of a 96-well plate). The optical density at 570 nm (OD570) of each well was measured using a Synergy MX multimode reader (BioTek, Winooski, VT). The concentration of each compound needed to inhibit biofilm formation by 50% (BIC50) and the concentration of each compound needed to inhibit planktonic growth by 50% (IC50) were determined from the concentration gradient by using nonlinear curve fitting (GraphPad Prism software, version 5; GraphPad Software, Inc., La Jolla, CA). In the same assay, the effect on planktonic growth was evaluated. The activity was considered biofilm specific if the BIC50 was at least two times lower than the IC50. Data represent the means from at least 3 technical repeats with the corresponding 95% confidence intervals (provided in the supplemental material).

S. liquefaciens MG44 = assay: Monospecies bacterial biofilm inhibition, static peg assay; format: cell-based, Serratia liquefaciens; conditions: Serratia liquefaciens
Protocol: as §1

[1] = system: S. aureus ATCC 6538 + S. epidermidis; assay: Mixed-species S. aureus-S. epidermidis biofilm assay (peg, crystal violet); format: cell-based, Staphylococcus aureus + Staphylococcus epidermidis; conditions: 37°C
Protocol: Overnight cultures of S. aureus ATCC 6538 and S. epidermidis were grown in LB medium and were diluted 1/200 in the same vial of TSB to form a mixed-culture suspension. Next, 2-fold serial dilutions of the compounds (dissolved in 100% DMSO or ethanol) in 100 μl TSB medium per well were prepared in the microtiter plate (Nunc no. 269789) in duplicate or triplicate with a maximum concentration of 1,600 μM and a minimum concentration of 0.8 μM. One hundred microliters of the mixed-culture suspension was added to each well of the microtiter plate, resulting in a total volume of 200 μl medium per well (final concentration range of compounds, 800 μM [2% DMSO or ethanol] to 0.4 μM [0.001% DMSO or ethanol]). The cells were then incubated for 48 h at 37°C, which allowed biofilm formation on the pegs (Nunc no. 269789) of the Calgary biofilm device. After 24 h, fresh medium with compounds was added to the wells, and after 48 h, the biofilm was colored with crystal violet as described above ([74]). The OD570 (biofilm) and OD600 (planktonic) were measured, and the BIC50 and the IC50, respectively, were calculated.

S. aureus SH1000 = assay: Monospecies bacterial biofilm inhibition, static peg assay; format: cell-based, Staphylococcus aureus
Protocol: as §1

[2] = system: C. albicans SC5314 + S. epidermidis; assay: Mixed C. albicans-S. epidermidis biofilm, selective plating CFU; format: cell-based, Candida albicans + Staphylococcus epidermidis; conditions: 37°C; for activity at 100 µM: 100 μM compound
Protocol: Overnight cultures of C. albicans SC5314 (YPD) and S. epidermidis (TSB) were diluted in RPMI 1640 medium to OD600s of 0.05 and 0.01, respectively. Equal volumes of the cell suspensions of each organism were mixed before use. One hundred microliters of this mixed cell suspension together with compound was added to the wells of a round-bottom microtiter plate (TPP; Trasadingen, Switzerland) in triplicate. Concentrations of 25 μM (0.0625% DMSO or ethanol) and 100 μM (0.25% DMSO or ethanol) were tested. After 24 h of incubation at 37°C, the biofilms were washed with PBS and fresh medium with or without compounds was added. After a further incubation for 48 h at 37°C, the biofilms were washed with PBS, after which the cells were resuspended in 100 μl of PBS by scraping them off, sonicated (1 min, 45 kHz; USC300-T; VWR, Radnor, PA, USA), and vigorously pipetted up and down. Finally, the biofilm cells were diluted in PBS and plated on YPD agar plates containing 100 mg/liter ampicillin and TSA plates containing 25 mg/liter amphotericin B to determine the number of fungal and bacterial CFU, respectively, after 2 days of incubation at 37°C. The percentage of C. albicans SC5314 and S. epidermidis cells relative to the number of cells after DMSO or ethanol control treatment was determined.

[3] = read-out: IC50 (planktonic growth)
[4] = S. liquefaciens MG44, 25°C, read-out: BIC50
[5] = S. liquefaciens MG44, 25°C, read-out: IC50 (planktonic growth)
[6] = 48 h, mixed S. aureus ATCC 6538 + S. epidermidis biofilm, read-out: BIC50
[7] = 48 h, mixed S. aureus ATCC 6538 + S. epidermidis, read-out: IC50 (planktonic growth)
[8] = Staphylococcus aureus, SH1000, S. aureus SH1000, 37°C, read-out: BIC50
[9] = Staphylococcus aureus, SH1000, S. aureus SH1000, 37°C, read-out: IC50 (planktonic growth)
[10] = 25 μM compound, read-out: % CFU survival, C. albicans
[11] = 25 μM compound, read-out: % CFU survival, S. epidermidis
[12] = read-out: % CFU survival, C. albicans
[13] = read-out: % CFU survival, S. epidermidis
[14] = mixed S. aureus ATCC 6538 + S. epidermidis, read-out: IC50 (planktonic growth)
[15] = mixed S. aureus ATCC 6538 + S. epidermidis biofilm, read-out: BIC50

Structure (SMILES)	IC50 (P. gingivalis ATCC 33277; read-out: BIC50)	IC50 (P. gingivalis ATCC 33277; [3])	IC50 (S. liquefaciens MG44; [4])	IC50 (S. liquefaciens MG44; [5])	IC50 [1, 6]	IC50 [1, 7]	IC50 (S. aureus SH1000; [8])	IC50 (S. aureus SH1000; [9])	% CFU survival, C. albicans ([2]; 25 μM compound)	% CFU survival, S. epidermidis ([2]; 25 μM compound)	activity at 25 µM [2, 10]	activity at 25 µM [2, 11]	activity at 100 µM [2, 12]	activity at 100 µM [2, 13]	IC50 (S. aureus SH1000; S. aureus SH1000, 37°C, read-out: BIC50)	IC50 (S. liquefaciens MG44; MG44, read-out: BIC50)	IC50 (S. liquefaciens MG44; MG44, read-out: IC50 (planktonic growth))	IC50 [1, 14]	IC50 [1, 15]
CCCCCn1c(-c2ccccc2)cnc1N [Compound 1]	13.2 µM	32.1 µM	168 µM	177 µM	44.2 µM	~356 µM	163 µM	> 400 µM	–	–	–	–	–	–	–	–	–	–	–
CCCCCCCCn1c(-c2ccc(Cl)cc2)cnc1N [Compound 2]	3.9 µM	6 µM	18.8 µM	38 µM	~7.2 µM	~9.9 µM	2 to 6 µM	8.3 µM	completely inhibited	completely inhibited	< 0.6%	0%	< 0.2%	0%	3.4 µM	–	–	–	–
CC(C)CNc1ncc(-c2ccc(Cl)cc2)[nH]1 [Compound 3]	5.3 µM	5.1 µM	–	–	~26.3 µM	~140 µM	200 µM	175 µM	–	–	58.3%	64.6%	235%	13.2%	–	10.4 µM	154 µM	–	–
CCCCNc1ncc(-c2ccc(Br)cc2)[nH]1 [Compound 4]	3.7 µM	8.2 µM	4.4 µM	118 µM	6.8 µM	~118 µM	66.5 µM	89.4 µM	–	–	–	–	–	–	–	–	–	–	–
Brc1ccc(-c2cnc(NCCn3cc(C4CC4)nn3)[nH]2)cc1 [Compound 6]	18.1 µM	19.5 µM	63.3 µM	> 400 µM	33.9 µM	~392 µM	> 400 µM	> 400 µM	–	–	–	–	–	–	–	–	–	–	–
CCCCCCCCn1c(-c2ccccc2)cnc1NCC(C)C [Compound 8a]	–	–	–	–	–	–	–	–	–	–	62.4%	–	1%	1%	–	–	–	~26.1 µM	–
CCCCCCCCn1c(-c2ccc(Cl)cc2)cnc1NCC(C)C [Compound 8b]	–	–	–	–	–	–	–	–	–	–	2%	6.1%	18.2%	0.7%	–	–	–	~22.2 µM	1.1 µM
CCCCCCCCn1c(-c2ccc(Br)cc2)cnc1NCC(C)C [Compound 8c]	–	–	–	–	–	–	–	–	–	–	3.2%	637%	8.4%	966%	–	–	–	> 400 µM	5 µM
CCCCCCCCn1c(-c2ccc(Cl)c(Cl)c2)cnc1NCC(C)C [Compound 8d]	–	–	–	–	–	–	–	–	–	–	2.5%	–	1.4%	–	–	–	–	> 400 µM	> 400 µM
CCCCCCCCn1c(-c2ccccc2)cnc1NC1CCCC1 [Compound 8e]	–	–	–	–	–	–	–	–	–	–	10%	93.1%	2.5%	0%	–	–	–	~23.6 µM	~3 µM
CCCCCCCCn1c(-c2ccc(Cl)cc2)cnc1NC1CCCC1 [Compound 8f]	–	–	–	–	–	–	–	–	–	–	2.9%	2.5%	7.2%	0.3%	–	–	–	~22.5 µM	2 µM
CCCCCCCCn1c(-c2ccc(Br)cc2)cnc1NC1CCCC1 [Compound 8g]	–	–	–	–	–	–	–	–	–	–	3.3%	0%	5.9%	0%	–	–	–	15.5 µM	~5.6 µM
CCCCCCCCn1c(-c2ccc(Cl)c(Cl)c2)cnc1NC1CCCC1 [Compound 8h]	–	–	–	–	–	–	–	–	–	–	6.7%	2%	3.5%	2.2%	–	–	–	~25.1 µM	4.9 µM
